Results on 20 compounds are retold here after PubChem BioAssay (NCI).

Structures are written as SMILES.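 Assay format: 96-well plates, 48-hour exposure. TGI is the concentration that stops growth completely.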

Among the test systems are MCF7 breast; OVCAR-8 ovarian; UACC-62 melanoma; CCRF-CEM leukemia; ACHN renal; UACC-257 melanoma; RXF 393 renal; U251 CNS; SR leukemia; SF-295 CNS.
Assay in all cases: DTP human tumour cell line panel, 48 h

By TGI is commonly meant the concentration at which net growth stops. High values mean lower sensitivity of the cells, low ones greater sensitivity of the cells. Take `CC(=O)Oc1ccc(OC(Oc2ccccc2)c2ccccc2)cc1` (stereo not given): the TGI with MCF7 breast was 82.2 µM; in the experiment with OVCAR-8 ovarian, over 100 µM; in the experiment on UACC-62 melanoma it was 44.6 µM; with CCRF-CEM leukemia it was 72.2 µM; with ACHN renal, 72.1 µM; in the experiment with UACC-257 melanoma it was 64.5 µM. Also, the TGI in the experiment with RXF 393 renal was 57.1 µM; with U251 CNS, 35.5 µM; in the experiment on SR leukemia it was 54.5 µM; with SF-295 CNS, over 100 µM.
`Sc1nnc(-c2ccccc2Nc2ccccc2-c2nnc(S)n2-c2ccccc2)n1-c1ccccc1`: the total growth inhibition concentration (TGI) in the experiment on MCF7 breast, with OVCAR-8 ovarian, with UACC-62 melanoma, in the experiment with CCRF-CEM leukemia, in the experiment on ACHN renal and with UACC-257 melanoma was over 100 µM throughout. Further, the TGI in the experiment on RXF 393 renal, in the experiment with U251 CNS, in the experiment on SR leukemia and in the experiment with SF-295 CNS was over 100 µM in each case.
With `C1OCN2c3nonc3N3COCN4c5nonc5N1C2C43` (stereo not given), the total growth inhibition concentration (TGI) with MCF7 breast, in the experiment on OVCAR-8 ovarian, in the experiment with UACC-62 melanoma, in the experiment with CCRF-CEM leukemia, with ACHN renal and with UACC-257 melanoma was over 100 µM each time. Further, the total growth inhibition concentration (TGI) in the experiment with RXF 393 renal, with U251 CNS, in the experiment on SR leukemia and in the experiment with SF-295 CNS was over 100 µM each time.
With `O=C1c2ccccc2C2(c3ccc(Cl)cc3)NCc3ccccc3CN12` (stereo not given), the TGI in the experiment on MCF7 breast was 40 µM; in the experiment with OVCAR-8 ovarian, 60.8 µM; with UACC-62 melanoma, 33.5 µM; in the experiment on CCRF-CEM leukemia it was 86.2 µM; with ACHN renal, 51.6 µM; with UACC-257 melanoma, over 100 µM. In addition, the TGI was 29.6 µM in the experiment on RXF 393 renal, over 100 µM in the experiment with U251 CNS, over 100 µM with SR leukemia and 35.7 µM with SF-295 CNS.
In the case of `CC(=O)c1ccc2c(c1)oc(=O)n2CCN(C)C`, the concentration for total growth inhibition (TGI) with MCF7 breast, in the experiment with OVCAR-8 ovarian, in the experiment on UACC-62 melanoma, in the experiment on CCRF-CEM leukemia, in the experiment on ACHN renal and with UACC-257 melanoma was over 100 µM each time. Further, the TGI in the experiment with RXF 393 renal, in the experiment on U251 CNS, with SR leukemia and with SF-295 CNS was over 100 µM throughout.
On to `c1ccc([C@H]2CN3CCSC3=N2)cc1`, for which the TGI in the experiment on MCF7 breast, with OVCAR-8 ovarian, in the experiment with UACC-62 melanoma, in the experiment with CCRF-CEM leukemia, in the experiment with ACHN renal and in the experiment on UACC-257 melanoma was over 100 µM in each case. Further, the total growth inhibition concentration (TGI) in the experiment with RXF 393 renal, with U251 CNS, in the experiment with SR leukemia and with SF-295 CNS was over 100 µM each time.
`O=C1Nc2ccccc2NC1C1OC(c2ccccc2)=CC1=O` (stereo not given): the concentration for total growth inhibition (TGI) in the experiment on MCF7 breast, in the experiment on OVCAR-8 ovarian, in the experiment on UACC-62 melanoma, in the experiment with CCRF-CEM leukemia, in the experiment with ACHN renal and in the experiment with UACC-257 melanoma was over 100 µM throughout. Further, the TGI with RXF 393 renal, in the experiment on U251 CNS, with SR leukemia and with SF-295 CNS was over 100 µM in each case.
As to `COC(=O)C1=C(OC(=O)/C(=C/c2ccc(Cl)cc2)c2ccccc2)C(C(=O)OC)[C@@]2(O)[C@@H](C(=O)OC)[C@H](C)C[C@@H]1[C@@H]2C(=O)OC` (stereo not given in full), the concentration for total growth inhibition (TGI) with MCF7 breast, with OVCAR-8 ovarian, with UACC-62 melanoma, in the experiment with CCRF-CEM leukemia, in the experiment on ACHN renal and in the experiment on UACC-257 melanoma was over 100 µM in each case. Moreover, the TGI in the experiment with RXF 393 renal, with U251 CNS, in the experiment with SR leukemia and in the experiment with SF-295 CNS was over 100 µM throughout.
`Cc1ccc(S(=O)(=Nc2ccccc2)C(C(C)C)C(C)(C)Cl)cc1` (stereo not given): the TGI in the experiment with MCF7 breast, in the experiment on OVCAR-8 ovarian, with UACC-62 melanoma, in the experiment with CCRF-CEM leukemia, with ACHN renal and in the experiment on UACC-257 melanoma was over 50 µM each time. For the same compound, the total growth inhibition concentration (TGI) with RXF 393 renal is over 50 µM; with U251 CNS, over 50 µM; in the experiment with SR leukemia, 49.7 µM; in the experiment with SF-295 CNS, over 50 µM.
For the compound `C=C1c2nc3ccccc3n2C=C(c2ccc(Cl)cc2)N1c1ccccc1`, the concentration for total growth inhibition (TGI) is 25.7 µM in the experiment on MCF7 breast; 23.7 µM with OVCAR-8 ovarian; 66.2 µM with UACC-62 melanoma; over 100 µM in the experiment on CCRF-CEM leukemia; 24.8 µM in the experiment with ACHN renal; 63 µM with UACC-257 melanoma. In addition, the TGI with RXF 393 renal was 49.5 µM; in the experiment with U251 CNS, 44.8 µM; in the experiment with SR leukemia, over 100 µM; in the experiment with SF-295 CNS it was 24 µM.
Turning to `Clc1ccc(OCC2NC3C=CC32)cn1` (stereo not given), the TGI with MCF7 breast, in the experiment on OVCAR-8 ovarian, in the experiment on UACC-62 melanoma, in the experiment with CCRF-CEM leukemia, with ACHN renal and in the experiment on UACC-257 melanoma was over 100 µM throughout. The total growth inhibition concentration (TGI) in the experiment with RXF 393 renal, in the experiment on U251 CNS, with SR leukemia and with SF-295 CNS was over 100 µM throughout.
`O=C1C=CC2(O[C@@H](Cc3ccccc3)[C@H](Cc3ccccc3)O2)C(SC(=O)c2ccccc2)C1` (stereo not given in full): the TGI is 2.12 µM in the experiment with MCF7 breast; 0.549 µM with OVCAR-8 ovarian; 5.04 µM with UACC-62 melanoma; 1.15 µM in the experiment with CCRF-CEM leukemia; 2.43 µM in the experiment on ACHN renal; 2.55 µM in the experiment on UACC-257 melanoma. Moreover, the TGI with RXF 393 renal stood at 0.325 µM; with U251 CNS, 2.56 µM; in the experiment with SR leukemia, 0.807 µM; in the experiment with SF-295 CNS it was 4.28 µM.
On to `COc1cc2c3c(cc(Cl)nc3c1OC)C(O)(CC(C)=O)C(=O)N2` (stereo not given), for which the TGI in the experiment on MCF7 breast is 35.9 µM; with OVCAR-8 ovarian, 36.2 µM; with UACC-62 melanoma, 31.5 µM; in the experiment on CCRF-CEM leukemia, over 45.4 µM; in the experiment with ACHN renal it was over 54 µM; in the experiment with UACC-257 melanoma it was 21.5 µM. The total growth inhibition concentration (TGI) is 30.7 µM in the experiment with RXF 393 renal, over 100 µM in the experiment on U251 CNS, over 66.9 µM with SR leukemia and over 100 µM with SF-295 CNS.
`N#CC1N(C(=O)c2ccc(F)cc2)c2ccccc2N1C(=O)c1ccc(F)cc1`: the TGI is over 100 µM in the experiment on MCF7 breast; over 100 µM in the experiment on OVCAR-8 ovarian; over 100 µM with UACC-62 melanoma; 87.2 µM in the experiment with CCRF-CEM leukemia; over 100 µM in the experiment with ACHN renal; over 100 µM in the experiment on UACC-257 melanoma. Also, the TGI with RXF 393 renal, in the experiment on U251 CNS, in the experiment with SR leukemia and in the experiment with SF-295 CNS was over 100 µM each time.
In the case of `O=C(c1ccc(Cl)cc1)N(Cc1cccnc1)C(=S)N(Cc1cccnc1)C(=O)c1ccc(Cl)cc1`, the total growth inhibition concentration (TGI) in the experiment with MCF7 breast was over 100 µM; in the experiment on OVCAR-8 ovarian it was 85.3 µM; in the experiment on UACC-62 melanoma, over 100 µM; in the experiment with CCRF-CEM leukemia, over 100 µM; in the experiment on ACHN renal, over 100 µM; in the experiment on UACC-257 melanoma, over 100 µM. The TGI in the experiment with RXF 393 renal was over 100 µM; with U251 CNS, 53.6 µM; in the experiment with SR leukemia it was over 100 µM; with SF-295 CNS, over 100 µM.
Regarding `CC(/C=N/NC1=NCCCCN1)=N\NC1=NCCCCN1`, the total growth inhibition concentration (TGI) in the experiment on MCF7 breast, with OVCAR-8 ovarian, in the experiment with UACC-62 melanoma, in the experiment with CCRF-CEM leukemia, in the experiment on ACHN renal and with UACC-257 melanoma was over 100 µM each time. The TGI in the experiment on RXF 393 renal, in the experiment with U251 CNS, in the experiment with SR leukemia and in the experiment with SF-295 CNS was over 100 µM each time.
As for `CC(C)OC(=O)c1ccc(CCC2=CC(=O)C(Br)=CC2=O)cc1`, the TGI in the experiment on MCF7 breast stood at 35.2 µM; in the experiment with OVCAR-8 ovarian it was 32.8 µM; in the experiment with UACC-62 melanoma it was 31.3 µM; in the experiment with CCRF-CEM leukemia, 5.06 µM; in the experiment with ACHN renal it was 27.8 µM; in the experiment with UACC-257 melanoma, 26.9 µM. In addition, the concentration for total growth inhibition (TGI) was 31.2 µM in the experiment with RXF 393 renal, 29.8 µM in the experiment on U251 CNS, over 100 µM in the experiment on SR leukemia and 39.6 µM in the experiment with SF-295 CNS.
For `O=C1c2ccccc2C(=O)N1C(=S)c1ccccc1`, the TGI in the experiment with MCF7 breast, in the experiment on OVCAR-8 ovarian, with UACC-62 melanoma, in the experiment with CCRF-CEM leukemia, with ACHN renal and with UACC-257 melanoma was over 100 µM throughout. Besides, the concentration for total growth inhibition (TGI) with RXF 393 renal, in the experiment on U251 CNS, in the experiment with SR leukemia and with SF-295 CNS was over 100 µM throughout.
With `N=C1N=C(N)c2cc3c(cc21)SCCSCCCSCCS3`, the concentration for total growth inhibition (TGI) is over 55.7 µM in the experiment with MCF7 breast; 41.3 µM in the experiment on OVCAR-8 ovarian; over 54.7 µM with UACC-62 melanoma; over 25.9 µM in the experiment with CCRF-CEM leukemia; 28.2 µM in the experiment on ACHN renal; 44 µM with UACC-257 melanoma. The TGI in the experiment with RXF 393 renal is 41.3 µM; in the experiment with U251 CNS, over 50.7 µM; with SR leukemia, 37.6 µM; with SF-295 CNS, 31.1 µM.
Consider `CC1(C)Oc2ccc(Cl)cc2C12CC2`, for which the TGI is 33.3 µM in the experiment with MCF7 breast; 28.4 µM with OVCAR-8 ovarian; over 100 µM in the experiment with UACC-62 melanoma; over 100 µM in the experiment with CCRF-CEM leukemia; 30.1 µM with ACHN renal; 30.1 µM in the experiment on UACC-257 melanoma. Moreover, the TGI in the experiment on RXF 393 renal is 30.2 µM; with U251 CNS, 29.4 µM; with SR leukemia, 36.4 µM; in the experiment with SF-295 CNS, 27 µM.
